Laboratory results as given in the NIST ThermoML archive (doi:10.1016/j.jct.2007.11.011).

Experiment: xn = mol fraction of the nth substance listed
Details: Liquid

CCOS(=O)(=O)[O-].CCn1cc[n+](C)c1 [1-ethyl-3-methylimidazolium ethyl sulfate] + CO
mass density [kg/m3]
Details	100 kPa	2500 kPa	5000 kPa	10000 kPa	15000 kPa	20000 kPa	25000 kPa	30000 kPa	35000 kPa
283.15 K, x1 = 0.04781	895.14	896.98	898.83	902.39	905.85	909.18	912.41	915.51	918.59
283.15 K, x1 = 0.1026	968.87	970.47	972.09	975.24	978.32	981.31	984.2	987.02	989.77
283.15 K, x1 = 0.1977	1052.5	1053.84	1055.23	1057.94	1060.59	1063.21	1065.75	1068.22	1070.64
283.15 K, x1 = 0.2432	1081.02	1082.31	1083.64	1086.24	1088.8	1091.31	1093.76	1096.15	1098.5
283.15 K, x1 = 0.3026	1111.91	1113.14	1114.41	1116.86	1119.26	1121.66	1123.99	1126.28	1128.48
283.15 K, x1 = 0.3887	1145.18	1146.33	1147.51	1149.84	1152.14	1154.4	1156.62	1158.82	1160.95
283.15 K, x1 = 0.485	1173.12	1174.24	1175.35	1177.57	1179.75	1181.92	1184.04	1186.14	1188.17
283.15 K, x1 = 0.589	1195.65	1196.74	1197.79	1199.93	1202.04	1204.13	1206.18	1208.21	1210.17
283.15 K, x1 = 0.7289	1218.63	1219.71	1220.74	1222.79	1224.82	1226.84	1228.82	1230.77	1232.67
283.15 K, x1 = 0.8521	1233.5	1234.47	1235.48	1237.48	1239.47	1241.45	1243.37	1245.28	1247.16
283.15 K, x1 = 0.9397	1242.49	1243.52	1244.49	1246.47	1248.43	1250.39	1252.3	1254.18	1256.03
293.15 K, x1 = 0.04781	886.34	888.27	890.2	893.93	897.52	900.98	904.34	907.55	910.71
293.15 K, x1 = 0.1026	960.49	962.13	963.82	967.09	970.28	973.36	976.36	979.27	982.13
293.15 K, x1 = 0.1977	1044.52	1045.92	1047.38	1050.18	1052.91	1055.6	1058.22	1060.75	1063.26
293.15 K, x1 = 0.2432	1073.23	1074.55	1075.93	1078.61	1081.24	1083.82	1086.34	1088.79	1091.21
293.15 K, x1 = 0.3026	1104.25	1105.51	1106.81	1109.35	1111.82	1114.27	1116.67	1119.01	1121.32
293.15 K, x1 = 0.3887	1137.8	1138.99	1140.22	1142.61	1144.95	1147.27	1149.55	1151.75	1153.96
293.15 K, x1 = 0.485	1165.78	1166.91	1168.06	1170.35	1172.59	1174.79	1176.97	1179.09	1181.21
293.15 K, x1 = 0.589	1188.53	1189.55	1190.65	1192.84	1194.99	1197.11	1199.2	1201.26	1203.3
293.15 K, x1 = 0.7289	1211.6	1212.63	1213.69	1215.79	1217.88	1219.92	1221.94	1223.92	1225.88
293.15 K, x1 = 0.8521	1226.42	1227.39	1228.45	1230.49	1232.52	1234.53	1236.51	1238.43	1240.37
293.15 K, x1 = 0.9397	1235.42	1236.43	1237.46	1239.51	1241.5	1243.48	1245.42	1247.34	1249.28
298.15 K, x1 = 0.04781	881.9	883.82	885.81	889.63	893.33	896.87	900.3	903.63	906.81
298.15 K, x1 = 0.1026	956.23	957.85	959.6	962.97	966.22	969.37	972.43	975.41	978.3
298.15 K, x1 = 0.1977	1040.54	1041.91	1043.39	1046.26	1049.05	1051.78	1054.44	1057.05	1059.58
298.15 K, x1 = 0.2432	1069.25	1070.58	1071.99	1074.73	1077.43	1080.03	1082.59	1085.11	1087.54
298.15 K, x1 = 0.3026	1100.31	1101.59	1102.92	1105.51	1108.07	1110.55	1112.96	1115.37	1117.69
298.15 K, x1 = 0.3887	1134.01	1135.21	1136.46	1138.92	1141.32	1143.68	1145.98	1148.26	1150.46
298.15 K, x1 = 0.485	1162.03	1163.15	1164.36	1166.69	1168.99	1171.24	1173.44	1175.62	1177.74
298.15 K, x1 = 0.589	1184.83	1185.86	1187.01	1189.25	1191.45	1193.61	1195.76	1197.87	1199.91
298.15 K, x1 = 0.7289	1207.95	1208.92	1210.02	1212.17	1214.29	1216.37	1218.42	1220.46	1222.43
298.15 K, x1 = 0.8521	1222.76	1223.17	1224.62	1226.79	1228.88	1230.93	1232.93	1234.93	1236.86
298.15 K, x1 = 0.9397	1231.87	1232.94	1234.01	1236.07	1238.12	1240.12	1242.11	1244.08	1245.99
303.15 K, x1 = 0.04781	877.37	879.39	881.43	885.44	890.01	–	–	–	–
303.15 K, x1 = 0.1026	951.86	953.61	955.38	958.89	962.19	–	–	–	–
303.15 K, x1 = 0.1977	1036.37	1037.84	1039.36	1042.38	1045.21	–	–	–	–
303.15 K, x1 = 0.2432	1065.2	1066.61	1068.04	1070.92	1073.64	–	–	–	–
303.15 K, x1 = 0.3026	1096.34	1097.65	1099	1101.75	1104.31	–	–	–	–
303.15 K, x1 = 0.3887	1130.14	1131.4	1132.67	1135.24	–	–	–	–	–
303.15 K, x1 = 0.485	1158.24	1159.4	1160.61	1163.06	–	–	–	–	–
303.15 K, x1 = 0.589	1181.07	1182.15	1183.33	1185.69	–	–	–	–	–
303.15 K, x1 = 0.7289	1204.24	1205.29	1206.4	1208.67	–	–	–	–	–
303.15 K, x1 = 0.8521	1219.11	1220.12	1221.21	1223.41	–	–	–	–	–
303.15 K, x1 = 0.9397	1228.28	1229.37	1230.44	1232.62	–	–	–	–	–
